In ChEMBL document CHEMBL5241130, “Integrating a phenotypic screening with a structural simplification strategy to identify 4-phenoxy-quinoline derivatives to potently disrupt the mitotic localization of Aurora kinase B” (Bioorg Med Chem, 2023):
Active and inactive are the calls of the source. No cut-off for these calls is given here.

Legend:
[1] = Kinetic solubility of the compound in HCl buffer at pH 2.2 measured after 72 hrs by LC-MS analysis; type: physicochemical; details: read-out: Kinetic_solubility
[2] = Clearance in Wistar rat at 20 mg/kg, po measured for 24 hrs by LC-MS/MS analysis; type: ADME, organism-based; details: in vivo
[3] = molecular target: Mitotic checkpoint serine/threonine-protein kinase BUB1 (Homo sapiens) (UniProt O43683); test: Inhibition of Bub1 (unknown origin) by bio-chip based analysis
HeLa = test: Cytotoxicity against human HeLa cells assessed as cell growth inhibition incubated for 3 days by MTT assay; type: functional, cell-based; details: time 3.0 day
[4] = Volume of distribution at steady state in Wistar rat at 2 mg/kg, iv measured after 24 hrs by LC-MS/MS analysis; type: ADME, organism-based; details: in vivo, read-out: Vdss
[5] = molecular target: Serine/threonine-protein kinase PLK1 (Homo sapiens) (UniProt P53350); test: Inhibition of PLK1 (unknown origin) by bio-chip based analysis
[6] = Plasma concentration in BALB/c nude mouse xenografted with human HCT-116 cells at 50 mg/kg, po bid for 7 days and measured at 12 hrs post-last drug administration by LC-MS/MS analysis; type: ADME, organism-based; details: time 7 day
[7] = molecular target: Aurora kinase B (Homo sapiens) (UniProt Q96GD4); test: Disruption of mitotic localization of AURKB in human RPE-MYC H2B-GFP cells assessed as induction of mitotic arrest by fluorescence high content cell imaging analysis; type: cell-based
[8] = molecular target: T1, Aurora kinase A (Homo sapiens) (UniProt O14965); test: Inhibition of AURKA in human RPE-MYC H2B-GFP cells assessed as inhibition of autophosphorylation of AURKA at Thr288 residue at 8XMEC measured after 6 hrs by immunofluorescence staining analysis; type: cell-based
T1 sequence (whole entry): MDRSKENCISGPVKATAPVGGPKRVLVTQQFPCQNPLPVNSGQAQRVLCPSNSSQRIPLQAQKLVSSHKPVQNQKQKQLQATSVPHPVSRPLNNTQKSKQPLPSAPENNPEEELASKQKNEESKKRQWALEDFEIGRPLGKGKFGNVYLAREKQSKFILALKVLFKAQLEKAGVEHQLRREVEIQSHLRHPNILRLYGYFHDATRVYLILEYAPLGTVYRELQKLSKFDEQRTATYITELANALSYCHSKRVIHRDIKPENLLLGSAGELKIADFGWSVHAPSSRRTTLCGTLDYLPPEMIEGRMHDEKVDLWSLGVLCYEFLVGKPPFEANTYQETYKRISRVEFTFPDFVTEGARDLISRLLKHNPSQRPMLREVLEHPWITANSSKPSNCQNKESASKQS

NCI-N87 = test: Cytotoxicity against human NCI-N87 cells assessed as cell growth inhibition incubated for 3 days by MTT assay; type: functional, cell-based; details: time 3.0 day
[9] = MRT (0 to infinity) in Wistar rat at 20 mg/kg, po by LC-MS/MS analysis; type: ADME, organism-based; details: in vivo
[10] = molecular target: Serine/threonine-protein kinase PLK2 (Homo sapiens) (UniProt Q9NYY3); test: Inhibition of PLK2 (unknown origin) by bio-chip based analysis
[11] = molecular target: Discoidin domain-containing receptor 2 (Homo sapiens, UniProt Q16832); test: Inhibition of DDR2 (unknown origin) assessed as inhibition of DDR2 interaction with DNA-bound ligand by qPCR analysis
[12] = Plasma concentration in BALB/c nude mouse xenografted with human HCT-116 cells administered as single dose and measured after 6 hrs by LC-MS/MS analysis; type: ADME
[13] = molecular target: Aurora kinase B (Homo sapiens) (UniProt Q96GD4); test: Disruption of mitotic localization of AURKB in human RPE-MYC H2B-GFP cells assessed as induction of mitotic arrest measured after 24 hrs by fluorescence high content cell imaging analysis; type: cell-based
NCI-H23 = test: Cytotoxicity against human NCI-H23 cells assessed as cell growth inhibition incubated for 3 days by MTT assay; type: functional, cell-based; details: time 3.0 day
[14] = tested on: Tyrosine-protein kinase ABL1 (Homo sapiens), P00519 [F317L]; test: Inhibition of human recombinant ABL1 F317L mutant at 2 uM by KINOMEscan assay
[15] = Toxicity in BALB/c nude mouse xenografted with human HCT-116 cells assessed as body weight at 50 mg/kg, po bid for 7 days; type: organism-based; details: in vivo, 168 h, time 7 day
[16] = Drug uptake in tumor of BALB/c nude mouse xenografted with human HCT-116 cells at 50 mg/kg, po bid for 7 days and measured at 6 hrs post-last drug administration by LC-MS/MS analysis; type: ADME, organism-based, Neoplasm; details: time 7 day, read-out: Drug uptake
Mus musculus = test: Induction of polyploidy in BALB/c nude mouse xenografted with human HCT-116 cells assessed as increase in polyploid cells in tumor at 50 mg/kg, po bid for 7 days by immunohistochemical staining based analysis relative to control; type: functional; details: time 7 day
[17] = molecular target: Mast/stem cell growth factor receptor Kit (Homo sapiens, UniProt P10721); test: Inhibition of c-Kit (unknown origin); type: toxicity
[18] = Drug degradation in PBS buffer at pH 7.4 measured after 72 hrs by LC-MS analysis; type: physicochemical; details: read-out: Drug degradation
[19] = Drug degradation in mouse plasma at 1 to 10 uM incubated for 2 hrs by LC-MS analysis; type: ADME, cell-free; details: dose 1-10 µM, read-out: Drug degradation
[20] = Dose normalized AUC (0 to infinity) in Wistar rat at 2 mg/kg, iv by LC-MS/MS analysis; type: ADME, organism-based; details: in vivo
[21] = molecular target: Rho-associated protein kinase 2 (Homo sapiens) (UniProt O75116); test: Inhibition of ROCK2 (unknown origin) by bio-chip based analysis
[22] = Ratio of drug uptake in tumor of BALB/c nude mouse xenografted with human HCT-116 cells at 50 mg/kg, po bid for 7 days and measured at 6 hrs post-last drug administration to MEC for disruption of mitotic localization of AURKB in human RPE-MYC H2B-GFP cells assessed as induction of mitotic arrest measured after 24 hrs
[23] = molecular target: Aurora kinase B (Homo sapiens) (UniProt Q96GD4); test: Inhibition of AURKB in human RPE-MYC cells expressing BCL2 assessed as inhibition of histone H3 phosphorylation at Ser10 residue at 40 nM measured after 6 hrs by immunofluorescence staining analysis; type: cell-based
HCT-116 = test: Cytotoxicity against human HCT-116 cells assessed as cell growth inhibition incubated for 3 days by MTT assay; type: functional, cell-based; details: time 3.0 day
[24] = Drug degradation in human plasma at 1 to 10 uM incubated for 2 hrs by LC-MS analysis; type: ADME, cell-free; details: dose 1-10 µM, read-out: Drug degradation
[25] = Apparent volume of distribution in Wistar rat at 20 mg/kg, po measured for 24 hrs by LC-MS/MS analysis; type: ADME, organism-based; details: in vivo
[26] = tested on: Tyrosine-protein kinase ABL1 (Homo sapiens), P00519 [H396P]; test: Inhibition of human recombinant ABL1 H396P mutant at 2 uM by KINOMEscan assay
[27] = molecular target: Aurora kinase B (Homo sapiens) (UniProt Q96GD4); test: Disruption of mitotic localization of AURKB in human RPE-MYC cells expressing BCL2 assessed as disruption of PLK1 localization at centrosome during prophase at 40 nM measured after 6 hrs by immunofluorescence staining analysis; type: cell-based
[28] = Oral bioavailability in Wistar rat at 20 mg/kg measured for 24 hrs by LC-MS/MS analysis; type: ADME, organism-based; details: in vivo
A549 = test: Cytotoxicity against human A549 cells assessed as cell growth inhibition incubated for 3 days by MTT assay; type: functional, cell-based; details: time 3.0 day

Aurora kinase B (Homo sapiens), sequence (Q96GD4 whole entry): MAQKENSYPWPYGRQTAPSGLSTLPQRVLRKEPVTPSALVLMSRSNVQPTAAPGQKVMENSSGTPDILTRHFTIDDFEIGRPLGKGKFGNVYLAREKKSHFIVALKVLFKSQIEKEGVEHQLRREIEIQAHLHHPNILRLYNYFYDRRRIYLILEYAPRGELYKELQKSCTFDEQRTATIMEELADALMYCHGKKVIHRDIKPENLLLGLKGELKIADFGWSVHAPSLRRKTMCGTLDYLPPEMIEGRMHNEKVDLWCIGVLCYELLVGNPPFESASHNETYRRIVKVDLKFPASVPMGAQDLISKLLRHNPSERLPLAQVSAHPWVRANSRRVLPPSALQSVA
Rho-associated protein kinase 2 (Homo sapiens), sequence (O75116 whole entry, looked up): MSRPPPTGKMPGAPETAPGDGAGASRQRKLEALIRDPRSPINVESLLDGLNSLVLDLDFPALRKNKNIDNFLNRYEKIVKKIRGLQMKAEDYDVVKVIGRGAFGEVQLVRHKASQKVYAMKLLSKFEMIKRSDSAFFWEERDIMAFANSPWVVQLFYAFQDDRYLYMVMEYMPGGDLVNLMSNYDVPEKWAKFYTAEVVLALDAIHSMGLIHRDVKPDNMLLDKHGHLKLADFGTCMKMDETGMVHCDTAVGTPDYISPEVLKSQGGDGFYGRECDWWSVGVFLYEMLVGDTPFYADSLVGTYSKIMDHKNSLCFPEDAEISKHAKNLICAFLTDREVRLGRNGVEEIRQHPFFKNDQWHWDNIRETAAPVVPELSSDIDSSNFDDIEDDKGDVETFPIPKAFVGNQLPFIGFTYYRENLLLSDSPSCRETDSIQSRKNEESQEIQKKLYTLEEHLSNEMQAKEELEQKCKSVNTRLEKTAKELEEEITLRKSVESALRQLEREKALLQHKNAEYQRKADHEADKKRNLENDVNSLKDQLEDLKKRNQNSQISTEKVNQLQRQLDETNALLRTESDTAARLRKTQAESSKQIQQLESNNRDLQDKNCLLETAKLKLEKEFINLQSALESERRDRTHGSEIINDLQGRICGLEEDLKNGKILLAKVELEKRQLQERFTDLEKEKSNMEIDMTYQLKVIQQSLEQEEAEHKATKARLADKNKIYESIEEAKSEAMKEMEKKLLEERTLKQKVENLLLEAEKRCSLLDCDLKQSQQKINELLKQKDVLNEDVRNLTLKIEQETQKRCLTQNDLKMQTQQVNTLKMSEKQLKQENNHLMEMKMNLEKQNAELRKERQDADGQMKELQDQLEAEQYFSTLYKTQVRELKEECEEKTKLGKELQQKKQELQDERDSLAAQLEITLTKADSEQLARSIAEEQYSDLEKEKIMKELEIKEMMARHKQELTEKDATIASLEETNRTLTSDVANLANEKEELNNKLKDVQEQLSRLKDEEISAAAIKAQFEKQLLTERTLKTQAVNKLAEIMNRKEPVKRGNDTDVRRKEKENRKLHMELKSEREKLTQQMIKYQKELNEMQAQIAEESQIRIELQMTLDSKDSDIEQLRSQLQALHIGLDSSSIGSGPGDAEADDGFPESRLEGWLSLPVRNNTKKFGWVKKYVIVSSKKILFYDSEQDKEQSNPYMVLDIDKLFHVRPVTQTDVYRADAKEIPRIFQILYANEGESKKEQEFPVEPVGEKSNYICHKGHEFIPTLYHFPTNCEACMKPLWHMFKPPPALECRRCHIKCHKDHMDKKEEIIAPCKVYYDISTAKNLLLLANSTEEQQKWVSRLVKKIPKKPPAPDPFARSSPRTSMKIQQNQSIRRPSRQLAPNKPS
Discoidin domain-containing receptor 2, sequence (Q16832 whole entry, the tested form may be a part): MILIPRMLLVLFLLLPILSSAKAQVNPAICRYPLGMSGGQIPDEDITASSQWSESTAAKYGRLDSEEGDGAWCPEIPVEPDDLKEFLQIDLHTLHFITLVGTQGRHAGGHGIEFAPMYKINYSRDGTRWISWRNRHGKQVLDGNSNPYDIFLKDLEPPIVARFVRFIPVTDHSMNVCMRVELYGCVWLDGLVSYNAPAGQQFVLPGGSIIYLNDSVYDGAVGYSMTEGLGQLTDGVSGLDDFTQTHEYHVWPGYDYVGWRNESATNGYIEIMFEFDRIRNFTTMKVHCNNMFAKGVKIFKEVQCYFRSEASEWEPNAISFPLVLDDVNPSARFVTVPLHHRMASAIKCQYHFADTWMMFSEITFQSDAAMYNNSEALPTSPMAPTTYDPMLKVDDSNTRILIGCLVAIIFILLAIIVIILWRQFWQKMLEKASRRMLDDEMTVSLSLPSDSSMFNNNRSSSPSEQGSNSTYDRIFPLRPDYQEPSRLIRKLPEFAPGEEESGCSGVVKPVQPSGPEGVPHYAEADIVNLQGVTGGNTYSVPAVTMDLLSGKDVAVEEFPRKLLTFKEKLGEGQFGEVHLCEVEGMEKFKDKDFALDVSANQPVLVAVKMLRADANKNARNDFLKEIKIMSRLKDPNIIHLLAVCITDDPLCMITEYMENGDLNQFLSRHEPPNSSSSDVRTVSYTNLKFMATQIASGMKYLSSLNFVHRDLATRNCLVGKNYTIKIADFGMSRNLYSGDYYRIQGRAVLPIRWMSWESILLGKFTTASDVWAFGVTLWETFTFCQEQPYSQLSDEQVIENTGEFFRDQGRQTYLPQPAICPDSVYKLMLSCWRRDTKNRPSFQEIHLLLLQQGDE
Serine/threonine-protein kinase PLK2 (Homo sapiens), sequence (Q9NYY3 whole entry, looked up, the tested form may be a part): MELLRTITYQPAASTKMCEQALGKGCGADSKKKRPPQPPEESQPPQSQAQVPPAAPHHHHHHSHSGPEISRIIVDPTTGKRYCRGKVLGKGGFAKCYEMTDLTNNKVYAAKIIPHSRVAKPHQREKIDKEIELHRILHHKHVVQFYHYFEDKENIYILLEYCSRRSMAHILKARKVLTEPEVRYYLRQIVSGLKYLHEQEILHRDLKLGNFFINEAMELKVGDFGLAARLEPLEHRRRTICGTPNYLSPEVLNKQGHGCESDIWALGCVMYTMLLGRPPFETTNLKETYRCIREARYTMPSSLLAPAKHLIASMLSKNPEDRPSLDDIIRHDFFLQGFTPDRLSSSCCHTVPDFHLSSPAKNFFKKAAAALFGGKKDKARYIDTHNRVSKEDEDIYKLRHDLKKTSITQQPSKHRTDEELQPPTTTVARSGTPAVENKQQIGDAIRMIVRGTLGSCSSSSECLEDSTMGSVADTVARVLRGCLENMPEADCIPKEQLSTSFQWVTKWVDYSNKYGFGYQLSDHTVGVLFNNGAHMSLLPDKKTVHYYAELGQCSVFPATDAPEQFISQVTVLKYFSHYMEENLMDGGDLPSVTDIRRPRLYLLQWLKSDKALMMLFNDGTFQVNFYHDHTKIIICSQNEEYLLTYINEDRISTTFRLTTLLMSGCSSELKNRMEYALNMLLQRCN
Serine/threonine-protein kinase PLK1 (Homo sapiens), sequence (P53350 whole entry): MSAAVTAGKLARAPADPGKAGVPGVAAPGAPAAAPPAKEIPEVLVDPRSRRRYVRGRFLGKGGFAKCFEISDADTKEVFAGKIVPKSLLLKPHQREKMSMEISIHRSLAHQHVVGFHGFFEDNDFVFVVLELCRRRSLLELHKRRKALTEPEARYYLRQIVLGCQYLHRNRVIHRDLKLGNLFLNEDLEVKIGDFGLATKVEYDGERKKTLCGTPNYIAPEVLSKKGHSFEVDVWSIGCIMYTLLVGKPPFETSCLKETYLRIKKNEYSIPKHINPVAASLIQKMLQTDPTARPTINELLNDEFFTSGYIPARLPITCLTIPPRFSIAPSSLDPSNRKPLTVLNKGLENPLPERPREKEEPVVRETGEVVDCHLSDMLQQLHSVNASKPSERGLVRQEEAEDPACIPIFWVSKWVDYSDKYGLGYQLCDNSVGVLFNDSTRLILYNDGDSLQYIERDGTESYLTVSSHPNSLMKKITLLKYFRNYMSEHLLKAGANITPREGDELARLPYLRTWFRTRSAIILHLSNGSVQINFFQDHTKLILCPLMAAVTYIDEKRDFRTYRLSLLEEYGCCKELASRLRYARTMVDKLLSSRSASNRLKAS
Mast/stem cell growth factor receptor Kit, sequence (P10721 whole entry): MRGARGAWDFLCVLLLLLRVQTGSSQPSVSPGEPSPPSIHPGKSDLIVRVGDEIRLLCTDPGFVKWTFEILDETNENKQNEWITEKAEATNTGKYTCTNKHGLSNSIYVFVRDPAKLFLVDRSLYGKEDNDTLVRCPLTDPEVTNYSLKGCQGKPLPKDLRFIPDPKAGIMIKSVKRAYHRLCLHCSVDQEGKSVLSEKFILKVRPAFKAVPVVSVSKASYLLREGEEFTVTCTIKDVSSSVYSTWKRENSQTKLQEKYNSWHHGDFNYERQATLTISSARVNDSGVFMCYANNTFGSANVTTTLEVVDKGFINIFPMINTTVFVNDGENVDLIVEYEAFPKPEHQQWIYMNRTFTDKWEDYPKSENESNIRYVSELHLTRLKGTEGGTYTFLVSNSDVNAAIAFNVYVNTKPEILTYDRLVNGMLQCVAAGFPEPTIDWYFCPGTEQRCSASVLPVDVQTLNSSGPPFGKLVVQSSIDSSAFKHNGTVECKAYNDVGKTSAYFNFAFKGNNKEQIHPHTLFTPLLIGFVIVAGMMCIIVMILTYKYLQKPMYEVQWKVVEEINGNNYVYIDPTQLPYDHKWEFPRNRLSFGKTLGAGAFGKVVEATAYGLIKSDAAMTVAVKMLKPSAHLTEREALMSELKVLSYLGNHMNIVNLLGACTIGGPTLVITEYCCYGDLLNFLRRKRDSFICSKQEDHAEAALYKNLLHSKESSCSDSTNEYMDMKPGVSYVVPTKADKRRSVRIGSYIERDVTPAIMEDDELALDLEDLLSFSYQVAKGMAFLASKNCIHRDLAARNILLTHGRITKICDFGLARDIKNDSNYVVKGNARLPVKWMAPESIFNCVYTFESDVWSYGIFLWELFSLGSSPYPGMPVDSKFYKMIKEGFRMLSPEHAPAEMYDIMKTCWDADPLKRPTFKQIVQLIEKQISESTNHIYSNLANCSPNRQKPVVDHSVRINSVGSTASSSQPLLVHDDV

solubility kinetic at 72 h [1]: > 190 µM
CL/F [2]: 54.7 mL/min/kg
inhibition [3]: inactive
Vd [4]: 3.7 L/kg
inhibition [5]: inactive
concentration at 168 h [6]: 3.27 ng/mL
Activity [7]: inactive
inhibition [8]: < 40%
MRT inf [9]: 2.83 h
inhibition [10]: inactive
IC50 [11]: 225 nM
concentration at 6 h [12]: 213 ng/mL
MEC [13]: 0.01 µM
inhibition [14]: Active
concentration at 168 h [16]: 239 ng/mL
degraded at 72 h [18]: 0%
metabolised at 2 h, up to 10 µM [19]: 0%
AUC/dose [20]: 517.74 ng·h/mL/mg/kg
inhibition [21]: inactive
inhibition [23]: inactive
metabolised at 2 h, up to 10 µM [24]: 0%
Vz [25]: 15.41 L/kg
inhibition [26]: Active
Activity [27]: inactive
bioavailability [28]: 27.6%
SMILES: COc1cc(NC(C)=O)cc(Oc2ccnc3ccc(OC)cc23)c1
Activity (HeLa): Active
Activity (NCI-N87): Active
Activity (NCI-H23): Active
Activity [15]: Non-Toxic
fold change (FC) (Mus musculus): 1.7
inhibition (INH) [17]: Not Active
Ratio [22]: 70
Activity (HCT-116): Active
Activity (A549): Active
